Assay results as given in patent US6649621B2, “Prevention or reversal of sensorineural hearing loss (SNHL) through biologic mechanisms” (The United States of America as represented by the …, priority 1997, dated 2003).
Entries after “also recorded” stand apart in the source; their conditions may differ.

Legend:
[1] = test system: noise induced hearing loss; assay: Oral rescue agent in an individual with noise induced hearing loss; assay type: in vivo, human; conditions: 70 mg/kg by mouth, then 35 mg/kg QID for seven days; one patient
Description: FIG. 5 is a bar graph comparing the speech reception threshold values of an individual who suffered noise induced hearing loss before and after administration of an oral rescue agent. FIG. 6 is a bar graph comparing the word discrimination scores of an individual who suffered noise induced hearing loss before and after administration of an oral rescue agent. An Army Infantryman lost […] hearing protection in one ear during a live fire training evolution. […] received treatment in the form of ant initial dose of 70 mg/kg of L-N-acetyl cysteine (LNAC) by mouth followed by 35 mg/kg LNAC by mouth QID for seven days.

[2] = test system: idiopathic sensorineural hearing loss; assay: Treatment of individuals with sudden idiopathic sensorineural hearing loss (oral conventional therapy, then topical round window microcatheter); assay type: in vivo, human; conditions: one patient each
Description: FIG. 7 is a bar graph comparing the speech reception threshold values of an individual who suffered an idiopathic sensorineural hearing loss before and after administration of a topical rescue agent.
FIG. 8 is a bar graph comparing the word discrimination scores of an individual who suffered an idiopathic sensorineural hearing loss before and after administration of a topical rescue agent.
FIG. 9 is a bar graph comparing the speech reception threshold values of another individual who suffered an idiopathic sensorineural hearing loss before and after administration of a topical rescue agent.
FIG. 10 is a bar graph comparing the word discrimination scores of another individual who suffered an idiopathic sensorineural hearing loss before and after administration of a topical rescue agent.
A Army Sergeant noted the sudden onset of a severe hearing loss and tinnitus in their left ear. They were initially given one week of conventional therapy with oral prednisone and a trial of close observation. They had no response to this treatment regimen and two weeks after experiencing the hearing loss they were treated with topical methylprednisolone. The topical methylprednisolone was administered in a round window microcatheter (IntraEar Corporation, Denver, Colo.) via a method developed by our group. The methylprednisolone was given in a concentration of 125 mg/ml. […]

[3] = test system: noise-induced cochlear damage; conditions: cited from earlier work
[4] = test system: inner and outer hair cells; assay: R-PIA on round window membrane, chinchilla 4 kHz octave band noise, inner and outer hair cell losses; assay type: in vivo; conditions: 10^-4 M on round window membrane
Description: FIG. 1 is a series of graphs which depicts our experimental work with R-PIA in a chinchilla model of SNHL. A 10^−4 M solution of R-PIA was placed on the round window membrane of chinchillas for thirty minutes and saline was placed as a control on round window membrane in the opposite-ear. After thirty minutes the fluids were removed, the surgical sites closed and the animals were exposed to 4 kHz octave band noise at 105 dB SPL for thirty minutes. […] The details of this study have been submitted and recently accepted for publication in a peer-reviewed journal (5).

[5] = test system: noise induced permanent hearing loss; assay: R-PIA on round window membrane, impulse noise, frequency specific evoked potential threshold shifts; assay type: in vivo, Chinchilla; conditions: out to 20 days post-exposure
Description: FIGS. 3 & 4 illustrate data from Chinchilla exposed to simulated M-16 rifle fire impulse noise (50-salvo volleys). These animals received R-PIA treatment as outlined above (by the application of a dilute (10^−4 molar) solution of R-PIA directly onto the round window membrane for thirty minutes) with saline as a control on the round window membrane of the opposite ear. FIGS. 3 and 4 depict the percentage of missing inner and outer hair cells quantified in the inner ears of animals euthanized after the noise exposure. […] The results of both these tests show the frequency specific evoked potential threshold shifts from the same Chinchilla prior to and after noise exposure (out to 20 days post-exposure).

[6] = test system: inner and outer hair cells; assay: R-PIA on round window membrane, simulated M-16 impulse noise, missing hair cells; assay type: in vivo, Chinchilla; conditions: 10^-4 M on round window membrane 30 min, 50-salvo volleys, vs saline control ear
chinchilla model of SNHL = assay: R-PIA on round window membrane, chinchilla 4 kHz octave band noise, evoked potential hearing thresholds; assay type: in vivo
Description: FIG. 1 is a series of graphs which depicts our experimental work with R-PIA in a chinchilla model of SNHL. A 10^−4 M solution of R-PIA was placed on the round window membrane of chinchillas for thirty minutes and saline was placed as a control on round window membrane in the opposite-ear. After thirty minutes the fluids were removed, the surgical sites closed and the animals were exposed to 4 kHz octave band noise at 105 dB SPL for thirty minutes.

SMILES: CC(=O)N[C@@H](CS)C(=O)O [LNAC, L-N-acetyl cysteine]
- speech reception threshold [1]: complete recovery
- word discrimination ability [1]: complete recovery

SMILES: C[C@]12C=CC(=O)C=C1CC[C@@H]1[C@@H]2C(=O)C[C@@]2(C)[C@H]1CC[C@]2(O)C(=O)CO [prednisone]
- response of sudden hearing loss to conventional therapy [2]: no response

SMILES: CCCCS(=N)(=O)CCC(N)C(=O)O (stereo not drawn) [BSO, buthionine sulfoximine]
- hair cell damage and hearing loss associated with noise exposure ([3]; inhibition of GSH synthesis): enhances the hair cell damage and hearing loss associated with noise exposure

SMILES: Oc1ncnc2[nH]ncc12 [allopurinol]
- cochlear action potential and cochlear microphonic threshold shifts ([3]; given before and during damaging noise exposure): attenuate cochlear action potential and cochlear microphonic threshold shifts

SMILES: C[C@H](Cc1ccccc1)Nc1ncnc2c1ncn2[C@@H]1O[C@H](CO)[C@@H](O)[C@H]1O [R-PIA, R-N6-Phenylisopropyl adenosine]
- inner hair cell losses ([4]; both conditions): minimal
- reduction in outer hair cell loss ([4]; vs saline control ears): fourfold reduction; also recorded: four-fold reduction
- permanent hearing loss ([5]; vs ears that received no treatment): reduction of permanent hearing loss in R-PIA treated ears as compared to ears that received no treatment
- permanent hearing loss ([5]; vs saline treated (control) ears, variety of frequencies): reduction of permanent hearing loss in R-PIA treated ears as compared to saline treated (control) ears
- inner and outer hair cell loss [6]: significant reduction of inner and outer hair cell loss
- permanent hearing threshold shift / permanent hearing loss (chinchilla model of SNHL; 10^-4 M on round window membrane 30 min, vs saline control ears): significantly less permanent hearing threshold shift in R-PIA treated ears compared to saline treated ears at 4, 8 and 16 kHz; also recorded: significant reduction in permanent hearing loss
- recovery of hearing thresholds (chinchilla model of SNHL; 10^-4 M on round window membrane 30 min before 4 kHz octave band noise 105 dB SPL, days 0, 1, 2, 4 and 20, vs saline ear): faster and more complete recovery of hearing thresholds
